# Activity calls are given as the source filed them. The calls are words filed in the database; no cut-off is given here.
# Legend:
# [1] = test system: Staphylococcus epidermidis; experiment: Antimicrobial activity against antibiotic-resistant Staphylococcus epidermidis ATCC 700296 assessed as inhibition of visible growth measured after 20 to 24 hrs incubation by CLSI method; assay type: functional; settings: time 20-24 hrs
# [2] = test system: Bacillus subtilis; experiment: Antimicrobial activity against antibiotic-resistant Bacillus subtilis ATCC 6623 assessed as inhibition of visible growth measured after 20 to 24 hrs incubation by CLSI method; assay type: functional; settings: time 20-24 hrs
# [3] = test system: Staphylococcus aureus; experiment: Antimicrobial activity against Staphylococcus aureus ATCC 25923 assessed as inhibition of visible growth measured after 20 to 24 hrs incubation by CLSI method; assay type: functional; settings: time 20-24 hrs
# [4] = test system: Enterococcus faecium; experiment: Antimicrobial activity against antibiotic-resistant Enterococcus faecium ATCC 700221 assessed as inhibition of visible growth measured after 20 to 24 hrs incubation by CLSI method; assay type: functional; settings: time 20-24 hrs
# [5] = test system: Staphylococcus aureus; experiment: Antimicrobial activity against antibiotic-resistant Staphylococcus aureus ATCC 700699 assessed as inhibition of visible growth measured after 20 to 24 hrs incubation by CLSI method; assay type: functional; settings: time 20-24 hrs
# [6] = test system: Enterococcus faecalis; experiment: Antimicrobial activity against antibiotic-resistant Enterococcus faecalis ATCC 51299 assessed as inhibition of visible growth measured after 20 to 24 hrs incubation by CLSI method; assay type: functional; settings: time 20-24 hrs
# [7] = test system: Staphylococcus aureus; experiment: Antimicrobial activity against antibiotic-resistant Staphylococcus aureus ATCC 33592 assessed as inhibition of visible growth measured after 20 to 24 hrs incubation by CLSI method; assay type: functional; settings: time 20-24 hrs
# [8] = test system: Staphylococcus aureus; experiment: Antimicrobial activity against antibiotic-resistant Staphylococcus aureus ATCC BAA-2312 assessed as inhibition of visible growth measured after 20 to 24 hrs incubation by CLSI method; assay type: functional; settings: time 20-24 hrs
# [9] = test system: Staphylococcus aureus; experiment: Antimicrobial activity against antibiotic-resistant Staphylococcus aureus ATCC 33591 assessed as inhibition of visible growth measured after 20 to 24 hrs incubation by CLSI method; assay type: functional; settings: time 20-24 hrs
# [10] = test system: Enterococcus faecalis; experiment: Antimicrobial activity against antibiotic-susceptible Enterococcus faecalis ATCC 29212 assessed as inhibition of visible growth measured after 20 to 24 hrs incubation by CLSI method; assay type: functional; settings: time 20-24 hrs
# [11] = test system: Staphylococcus aureus; experiment: In vivo antimicrobial activity against Staphylococcus aureus USA300 infected in Caenorhabditis elegans AU37 nematodes assessed as viability of nematodes incubated for 5 days by susceptibility test; assay type: functional; settings: USA300, 120 h, time 5 day
# [12] = test system: Staphylococcus aureus; experiment: Antimicrobial activity against methicilline-resistant Staphylococcus aureus ATCC 700699 persisters assessed as bacterial killing at 32 time of MIC concentration measured for every 2 hrs upto 8 hrs by Persisters time course assay; assay type: functional, organism-based
# [13] = test system: Staphylococcus aureus; experiment: In vivo antimicrobial activity against Staphylococcus aureus UAMS-1 infected in Caenorhabditis elegans AU37 nematodes assessed as viability of nematodes incubated for 5 days by susceptibility test; assay type: functional; settings: UAMS-1, 120 h, time 5 day
# [14] = test system: Staphylococcus aureus; experiment: Antimicrobial activity against Staphylococcus aureus ATCC 25923 assessed as eradication of biofilm measured after 24 hrs incubation by Calgary method; assay type: functional
# [15] = test system: Staphylococcus aureus; experiment: Bactericidal activity in antibiotic-resistant Staphylococcus aureus ATCC 700699 assessed as reduction in viable cell count at 4 times of MIC measured upto 24 hrs by time kill assay; assay type: functional, organism-based
# [16] = test system: Panel NCI-60 (60 carcinoma cell lines); experiment: Cytotoxicity against human panel NCI-60 (60 carcinoma cell lines)cells assessed as cell viability at 10 uM measured after 24 hrs by resazurin assay; assay type: functional, cell-based
# [17] = test system: Staphylococcus aureus; experiment: In vivo antimicrobial activity against Staphylococcus aureus Newman infected in Caenorhabditis elegans AU37 nematodes assessed as viability of nematodes incubated for 5 days by susceptibility test; assay type: functional; settings: 120 h, time 5 day
# [18] = test system: Enterococcus faecalis; experiment: Antimicrobial activity against antibiotic-susceptible Enterococcus faecalis ATCC 29212 assessed as eradication of biofilm measured after 24 hrs incubation by Calgary method; assay type: functional
# [19] = test system: Staphylococcus aureus; experiment: Antimicrobial activity against clinical isolate Staphylococcus aureus Smu81 assessed as inhibition of growth measured after 20 to 24 hrs incubation by CLSI method; assay type: functional; settings: time 20-24 hrs
# [20] = test system: Staphylococcus aureus; experiment: Antimicrobial activity against clinical isolate Staphylococcus aureus Smu9 assessed as inhibition of growth measured after 20 to 24 hrs incubation by CLSI method; assay type: functional; settings: time 20-24 hrs
# [21] = test system: Staphylococcus aureus; experiment: Antimicrobial activity against clinical isolate Staphylococcus aureus Smu21 assessed as inhibition of growth measured after 20 to 24 hrs incubation by CLSI method; assay type: functional; settings: time 20-24 hrs
# [22] = test system: Staphylococcus aureus; experiment: Antimicrobial activity against clinical isolate Staphylococcus aureus Smu109 assessed as inhibition of growth measured after 20 to 24 hrs incubation by CLSI method; assay type: functional; settings: time 20-24 hrs
# [23] = test system: Staphylococcus aureus; experiment: Antimicrobial activity against clinical isolate Staphylococcus aureus Smu57 assessed as inhibition of growth measured after 20 to 24 hrs incubation by CLSI method; assay type: functional; settings: time 20-24 hrs
# [24] = test system: Staphylococcus aureus; experiment: Antimicrobial activity against Staphylococcus aureus UAB159 assessed as inhibition of growth measured after 20 to 24 hrs incubation by CLSI method; assay type: functional; settings: time 20-24 hrs
SMILES,MIC [1] [mg/L],MIC [2] [mg/L],MIC [3] [mg/L],MIC [4] [mg/L],MIC [5] [mg/L],MIC [6] [mg/L],MIC [7] [mg/L],MIC [8] [mg/L],MIC [9] [mg/L],MIC [10] [mg/L],further results
O=C(O)c1ccc(-n2cc(CNc3ccc(Cl)c(Cl)c3)c(-c3ccc(F)c(F)c3)n2)cc1,2,0.5,1,2,2,8,1,1,0.5,4,
O=C(O)c1ccc(-n2cc(CNc3ccc(Oc4ccccc4)cc3)c(-c3cccc(F)c3)n2)cc1,8,2,4,4,4,8,4,2,2,8,
O=C(O)c1ccc(-n2cc(CNc3cc(F)cc(C(F)(F)F)c3)c(-c3ccc(F)cc3)n2)cc1,4,4,2,8,2,16,4,2,2,16,
O=C(O)c1ccc(-n2cc(CNc3ccc(F)c(Cl)c3)c(-c3cccc(F)c3)n2)cc1,16,4,16,32,16,32,16,8,8,32,
O=C(O)c1ccc(-n2cc(CNc3cc(Br)cc(C(F)(F)F)c3)c(-c3ccc(F)cc3)n2)cc1,4,1,2,2,1,2,1,1,0.5,4,
O=C(O)c1ccc(-n2cc(CNc3ccc(Br)cc3)c(-c3cccc(F)c3)n2)cc1,16,4,4,16,16,32,16,8,4,32,
O=C(O)c1ccc(-n2cc(CNc3cc(Br)cc(C(F)(F)F)c3)c(-c3cccc(F)c3)n2)cc1,4,1,2,2,2,4,2,1,1,4,MIC [11]: 1 mg/L; Activity [12]: Active; MIC [13]: 1 mg/L; MBEC [14]: 4 µg/mL; Activity [15]: Active; Activity [16]: inactive; MIC [17]: 1 mg/L; MBEC [18]: 4 µg/mL
O=C(O)c1ccc(-n2cc(CNc3cc(Cl)cc(Cl)c3)c(-c3ccc(C(F)(F)F)cc3)n2)cc1,,,,,,,,,,,MIC [19]: 2 mg/L; MIC [20]: 1 mg/L; MIC [21]: 2 mg/L; MIC [22]: 2 mg/L; MIC [23]: 2 mg/L; MIC [24]: 2 mg/L
